# Measured values from patent publication US8349768B2, “Use of abscisic acid to alter sensory characteristics of white grapes and wine” (Valent BioSciences Corporation, priority 2007, dated 2013).
# Legend:
# Assay type in all cases: in vivo, grapevine
# [1] = test system: white wine grape cultivar 'Semillon'; assay: Semillon wine chemical (spectral) analysis
# Experimental: (§1) A replicated field experiment was conducted on the white wine grape cultivar ‘Semillon’ in the Riverina growing region of New South Wales, Australia to test the effect of S-ABA on white grapes. Four treatments were tested: Untreated control, 200 ppm S-ABA applied at pre-veraison, 200 ppm S-ABA applied at veraison, and 200 ppm S-ABA applied during the post-veraison period (berry sugar level of 10-11 Baume (18-20° brix)). There were 4 replicates of each treatment and the experiment was laid out in a randomized complete block (RCB) design. S-ABA was applied using a commercial airblast sprayer. S-ABA was applied at a concentration of 200 ppm in a volume of approximately 2000 L/Ha (approximately 200 gallons/A) in order to achieve thorough and complete coverage of the grape bunches. A 20% S-ABA soluble granule formulation was utilized in the experiment. The commercial surfactant Agral was included at a rate of 10 ml/100 L spray. Applications of S-ABA were made at pre-veraison (approximately 3 weeks before veraison or berry softening), veraison, and during the post-veraison period when the grape sugar levels had reached approximately 10-11 Baume (18-20° brix). The 10-11 Baume application took place 36 days after the veraison application. Irrigation, summer pruning, insecticide/fungicides and other routine vine management practices were the same as those practiced commercially by the grower in the adjacent parts of the vineyard.
# Wine was produced from the grapes from each of the S-ABA treatments. Small lot primary fermentations were conducted and the wine was bottled. Triplicate ferments of each treatment were conducted using approximately 3×50 kg of grapes. Each replicate ferment contained an equal volume of grapes from each of the four field replicates. Grapes were harvested from the central panels within each replicate. All grapes were harvested from both sides of the vines from these panels. The grapes were transferred immediately to the experimental winery, protected from heat and treated with sulfur dioxide. A standard winemaking protocol used for small-scale replicated primary fermentations was followed. Following the fermentation, the wine was bottled.
# Chemical analyses were conducted on the wines prepared from the various treatments in the field experiment using industry standard analytical methods.
# [2] = test system: white wine grape cultivar 'Chardonnay'; assay: Chardonnay wine descriptive analysis
# Experimental: (§2) A large block unreplicated field experiment was conducted on the white wine grape cultivar ‘Chardonnay’ in the Riverina growing region of New South Wales, Australia to test the effect of S-ABA on white grapes. Three treatments were tested: Untreated control, 200 ppm S-ABA applied at pre-veraison and 200 ppm S-ABA applied at veraison. Each block consisted of 4 rows and covered 0.4 Ha in size. S-ABA was applied using a commercial airblast sprayer. S-ABA was applied at a concentration of 200 ppm in a volume of approximately 1000 L/Ha (approximately 100 gallons/A) in order to achieve thorough and complete coverage of the grape bunches. A 20% S-ABA soluble granule formulation was utilized in the experiment. The commercial surfactant Kendeen 20 was included at a rate of 50 ml/100 L spray. Applications of S-ABA were made at pre-veraison (approximately 3 weeks before veraison or berry softening) and veraison. Irrigation, summer pruning, insecticide/fungicides and other routine vine management practices were the same as those practiced commercially by the grower in the adjacent parts of the vineyard.
# (§3) Wine was produced from the grapes from each of the S-ABA treatments. […]
# (§4) Sensory analysis was conducted on the S-ABA-treated and untreated wines. A panel consisting of ten experienced wine tasters evaluated the wines for aroma and taste. […]
# [3] = test system: white wine grape cultivar 'Chardonnay'; assay: Chardonnay field experiment: standard maturity berry measurements at harvest; conditions: for Baume: Chardonnay berries at harvest (26 days after veraison); for Titratable Acidity / pH: Chardonnay berries at harvest
# Experimental: as §2
# Grapes samples were harvested at the time of commercial harvest for berry analysis and table wine production. For the standard maturity berry measurements, 12-20 bunches per replicate were sampled. Bunches were randomly selected from both sides of the vines. Samples were analyzed using standard analytical methods used by the grape and wine industry. For additional spectral analyses, samples of 100 berries from each treatment were collected prior to winemaking.
# [4] = test system: white wine grape cultivar 'Semillon'; assay: Semillon field experiment: spectral analysis of berries at harvest
# Experimental: as §1
# Grape samples were harvested at the time of commercial harvest for berry analysis and table wine production. For the standard maturity berry measurements, 12-20 bunches per replicate were sampled. Bunches were randomly selected from both sides of the vines. Samples were analyzed using standard analytical methods used by the grape and wine industry. For additional spectral analyses, samples of 100 berries from each treatment were collected prior to winemaking.
# [5] = test system: white wine grape cultivar 'Chardonnay'; assay: Chardonnay wine sensory analysis: straight judgment of difference test; conditions: All Chardonnay wines from the S-ABA treatments; ten tasters; with statistical significance
# Experimental: as §2, §3, §4
# [6] = 200 ppm S-ABA applied at pre-veraison
# [7] = 200 ppm S-ABA applied at veraison
# [8] = Semillon berries at harvest, 200 ppm S-ABA applied at pre-veraison
# [9] = Semillon berries at harvest, 200 ppm S-ABA applied at veraison
# [10] = Semillon berries at harvest, 200 ppm S-ABA applied post-veraison (11 Baume)
substance,measurement,setting,value
"(S)-5-(1-hydroxy-2,6,6,-trimethyl-4-oxo-2-cyclohexen-1-yl)-3-methyl-(2Z,4E)-pentadienoic acid [S-ABA]",Total Hydroxycinnamates,[1]; [6],0.8700 a.u.
same,Total Hydroxycinnamates,"[1]; 200 ppm S-ABA applied at veraison, untreated control vs. veraison P = 0.0604",0.9033 a.u.
same,Total Hydroxycinnamates,[1]; 200 ppm S-ABA applied post-veraison (11 Baume),0.8267 a.u.
same,Levels of hydroxycinnamates in S-ABA treated wines,"[1]; spectral analysis, 200 ppm S-ABA treatments",higher levels of hydroxycinnamates
same,Descriptive characteristics compared to the Untreated,[2]; [6],"More intense aroma, slightly more mineral and bitterness"
same,Effect on fruit aroma and acidic taste in the wine,[2]; 200 ppm S-ABA treatments,increased or intensified
same,Baume,[3]; 200 ppm S-ABA foliar spray applied at pre-veraison,14.3
same,Baume,[3]; 200 ppm S-ABA foliar spray applied at veraison,14.4
same,Titratable Acidity,[3]; [6],6.2
same,pH,[3]; [6],3.73
same,Titratable Acidity,[3]; [7],6.9
same,pH,[3]; [7],3.60
same,"Effect on berry sugar content (Baume), pH, titratable acidity or bunch weight","[3]; Chardonnay, 200 ppm S-ABA treatments",did not consistently affect
same,A280,[4]; [8],6.62
same,A320,[4]; [8],2.642
same,A420,[4]; [8],0.465
same,Est. of brown pigments,[4]; [8],0.47 a.u.
same,Total Flavonoids,[4]; [8],1.80 a.u.
same,Total Hydroxycinnamates,[4]; [8],1.24 a.u.
same,Total Phenolics,[4]; [8],2.62 a.u.
same,A280,[4]; [9],6.85
same,A320,[4]; [9],2.713
same,A420,[4]; [9],0.471
same,Est. of brown pigments,[4]; [9],0.47 a.u.
same,Total Flavonoids,[4]; [9],1.98 a.u.
same,Total Hydroxycinnamates,[4]; [9],1.31 a.u.
same,Total Phenolics,[4]; [9],2.85 a.u.
same,A280,[4]; [10],6.47
same,A320,[4]; [10],2.59
same,A420,[4]; [10],0.461
same,Est. of brown pigments,[4]; [10],0.46 a.u.
same,Total Flavonoids,[4]; [10],1.68 a.u.
same,Total Hydroxycinnamates,[4]; [10],1.19 a.u.
same,Total Phenolics,[4]; [10],2.47 a.u.
same,Effect on phenolic composition of the berries,"[4]; Semillon berries at harvest, 200 ppm S-ABA treatments",tended to increase
same,"Total phenolics, hydroxycinnamates, total flavonoids and estimated brown pigments (chemical analysis)","[4]; Semillon berries, 200 ppm S-ABA treatments vs untreated",some differences
same,Judgment of difference from the reference wine (untreated control),[5],judged to be different from the reference wine
